# pIC50, pKi: −log10 of the molar value.
# Tests used:
# [1] = target: T1, Disintegrin and metalloproteinase domain-containing protein 17 (Homo sapiens, UniProt P78536); assay: Inhibition of TACE by cell based assay
# [2] = target: T1, Disintegrin and metalloproteinase domain-containing protein 17; assay: Inhibition of TACE
# [3] = AUC in Sprague-Dawley rat at 10 mg/kg, po measured within 6 hrs after post-dosing by LC/MS/MS analysis; assay type: ADME, organism-based; design: time < 6 hr, dose 10 mg/kg, route oral; settings: plasma
# [4] = Plasma concentration in Sprague-Dawley rat at 10 mg/kg, po measured after 6 hrs by LC/MS/MS analysis; assay type: ADME, organism-based; design: dose 10 mg/kg, route oral
# Interstitial collagenase = target: T2, Interstitial collagenase (Homo sapiens, UniProt P03956); assay: Inhibition of MMP1
# T2 sequence (P03956 whole entry): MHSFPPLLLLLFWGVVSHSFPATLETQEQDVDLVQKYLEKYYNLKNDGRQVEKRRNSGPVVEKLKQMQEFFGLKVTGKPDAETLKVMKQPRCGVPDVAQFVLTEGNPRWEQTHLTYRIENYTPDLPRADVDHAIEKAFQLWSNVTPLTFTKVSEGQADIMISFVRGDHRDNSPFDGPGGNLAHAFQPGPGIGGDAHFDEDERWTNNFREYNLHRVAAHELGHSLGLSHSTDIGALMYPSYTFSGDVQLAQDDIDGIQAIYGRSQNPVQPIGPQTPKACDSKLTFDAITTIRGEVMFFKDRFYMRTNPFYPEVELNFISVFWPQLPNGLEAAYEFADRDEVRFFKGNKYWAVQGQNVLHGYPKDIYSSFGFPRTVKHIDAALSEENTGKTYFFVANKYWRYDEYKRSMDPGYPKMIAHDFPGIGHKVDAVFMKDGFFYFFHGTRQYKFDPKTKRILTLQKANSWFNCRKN
# T1 sequence (P78536 whole entry, the tested form may be a part): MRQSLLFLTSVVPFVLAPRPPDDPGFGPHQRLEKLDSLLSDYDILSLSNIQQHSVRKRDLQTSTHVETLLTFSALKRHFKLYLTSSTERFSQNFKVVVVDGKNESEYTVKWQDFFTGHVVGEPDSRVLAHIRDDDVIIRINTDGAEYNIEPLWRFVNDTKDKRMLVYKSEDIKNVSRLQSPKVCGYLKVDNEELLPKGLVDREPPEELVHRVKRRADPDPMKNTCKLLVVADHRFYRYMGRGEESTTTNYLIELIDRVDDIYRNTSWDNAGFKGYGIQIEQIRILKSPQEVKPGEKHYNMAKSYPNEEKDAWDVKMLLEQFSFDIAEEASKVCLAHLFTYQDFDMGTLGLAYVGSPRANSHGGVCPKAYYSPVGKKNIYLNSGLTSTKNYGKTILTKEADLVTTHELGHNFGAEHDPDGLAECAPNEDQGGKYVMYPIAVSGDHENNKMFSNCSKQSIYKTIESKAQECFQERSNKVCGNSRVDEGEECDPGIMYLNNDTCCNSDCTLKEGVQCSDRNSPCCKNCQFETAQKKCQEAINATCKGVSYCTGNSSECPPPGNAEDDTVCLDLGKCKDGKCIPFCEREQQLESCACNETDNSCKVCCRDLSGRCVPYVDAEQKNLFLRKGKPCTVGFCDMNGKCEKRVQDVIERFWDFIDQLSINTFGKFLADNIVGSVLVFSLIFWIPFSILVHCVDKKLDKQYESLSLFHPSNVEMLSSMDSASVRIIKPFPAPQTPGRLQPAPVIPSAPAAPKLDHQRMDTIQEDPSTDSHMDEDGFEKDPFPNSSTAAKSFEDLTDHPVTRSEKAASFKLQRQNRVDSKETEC
pIC50 [1],pKi [2],AUC at 6 h [3] [nM·h],concentration at 6 h [4] [µM],pKi (Interstitial collagenase),Structure (SMILES)
,9.40,1460,,,C[C@@H](NC(=O)[C@H](O)[C@@H](O)C(=O)N1CCC[C@]1(C)c1cccc(Cl)c1)c1ccc(-n2cccn2)cc1
,9.30,461,,,C[C@@H](NC(=O)[C@H](O)[C@@H](O)C(=O)N1CC=C[C@@H]1c1cccc(Cl)c1)c1ccc(-n2cccn2)cc1
,8.59,,,,COc1cc2c(cc1OC)[C@H](c1ccc(Cl)cc1)N(C(=O)[C@H](O)[C@@H](O)C(=O)N[C@H](C)c1ccc(-n3cccn3)cc1)CC2
,7.42,,,,COc1cc2c(cc1OC)[C@H](c1ccccc1)CN(C(=O)[C@H](O)[C@@H](O)C(=O)N[C@H](C)c1ccc(-n3cccn3)cc1)CC2
,8.30,578,,,C[C@@H](NC(=O)[C@H](O)[C@@H](O)C(=O)N1CCC[C@@H]1c1cc[nH]n1)c1ccc(-n2cccn2)cc1
,8.00,,,,C[C@@H](NC(=O)[C@H](O)[C@@H](O)C(=O)N1CCC[C@@H]1c1nccs1)c1ccc(-n2cccn2)cc1
5.29,8.15,52000,5.97,,CCNc1nc([C@H]2CCCN2C(=O)[C@H](O)[C@@H](O)C(=O)N[C@H](C)c2ccc(-n3cccn3)cc2)cs1
5.35,8.40,48300,5.4,,CCCNc1nc([C@H]2CCCN2C(=O)[C@H](O)[C@@H](O)C(=O)N[C@H](C)c2ccc(-n3cccn3)cc2)cs1
5.94,9.00,130,,,C[C@@H](NC(=O)[C@H](O)[C@@H](O)C(=O)N1CCC[C@@H]1c1csc(Nc2ccccc2F)n1)c1ccc(-n2cccn2)cc1
5.26,8.70,,,,C[C@@H](NC(=O)[C@H](O)[C@@H](O)C(=O)N1CCC[C@@H]1c1csc(Nc2cccnc2)n1)c1ccc(-n2cccn2)cc1
,7.19,,,,C[C@@H](NC(=O)[C@H](O)[C@@H](O)C(=O)N1CCC[C@@H]1c1csc(N(C)C)n1)c1ccc(-n2cccn2)cc1
,7.41,1960,,,C[C@@H](NC(=O)[C@H](O)[C@@H](O)C(=O)N1CCC[C@@H]1c1csc(N2CCCCC2)n1)c1ccc(-n2cccn2)cc1
5.49,9.00,,,,CNc1nc([C@H]2CCCN2C(=O)[C@H](O)[C@@H](O)C(=O)N[C@H](C)c2ccc(-n3cccn3)cc2)c(-c2ccc(F)cc2)s1
5.56,8.40,1420,,,CNc1nc([C@H]2CC(F)(F)CN2C(=O)[C@H](O)[C@@H](O)C(=O)N[C@H](C)c2ccc(-n3cccn3)cc2)cs1
5.87,9.22,1810,,,CNc1nc([C@H]2C=CCN2C(=O)[C@H](O)[C@@H](O)C(=O)N[C@H](C)c2ccc(-n3cccn3)cc2)cs1
6.42,7.80,237,,,CNc1nc([C@H]2c3cc(F)ccc3CN2C(=O)[C@H](O)[C@@H](O)C(=O)N[C@H](C)c2ccc(-n3cccn3)cc2)cs1
6.54,8.70,,,,CNc1nc([C@H]2c3ccc(F)cc3CN2C(=O)[C@H](O)[C@@H](O)C(=O)N[C@H](C)c2ccc(-n3cccn3)cc2)cs1
6.59,9.30,,,,CCNc1nc([C@H]2c3cnc(N)nc3CN2C(=O)[C@H](O)[C@@H](O)C(=O)N[C@H](C)c2ccc(-n3cccn3)cc2)cs1
,8.17,4760,,,C[C@@H](NC(=O)[C@H](O)[C@@H](O)C(=O)N1CC[C@H](O)C1c1cccc(Cl)c1)c1ccc(-n2cccn2)cc1 (mixture of isomers)
,7.06,,,,C[C@@H](NC(=O)[C@H](O)[C@@H](O)C(=O)N1CCCCC1c1cccc(Cl)c1)c1ccc(-n2cccn2)cc1 (mixture of isomers)
,7.66,,,,C[C@@H](NC(=O)[C@H](O)[C@@H](O)C(=O)N1CCCCC1c1ccc(Cl)cc1)c1ccc(-n2cccn2)cc1 (mixture of isomers)

# The remaining lines, values behind:
Structure (SMILES),pIC50 [1],pKi [2],AUC at 6 h [3] [nM·h],concentration at 6 h [4] [µM],pKi (Interstitial collagenase)
CNc1nc([C@H]2CCCN2C(=O)[C@H](O)[C@@H](O)C(=O)N[C@H](C)c2ccc(-n3cccn3)cc2)c(S(C)(=O)=O)s1,6.14,,,,
C[C@@H](NC(=O)[C@H](O)[C@@H](O)C(=O)N1CCC[C@@H]1c1cccc(Cl)c1)c1ccc(-n2cccn2)cc1,,9.10,2950,0.096,< 4.00
C[C@@H](NC(=O)[C@H](O)[C@@H](O)C(=O)N1CCC[C@@H]1c1ccn(C)n1)c1ccc(-n2cccn2)cc1,,8.40,2920,0.086,
Cc1nc([C@H]2CCCN2C(=O)[C@H](O)[C@@H](O)C(=O)N[C@H](C)c2ccc(-n3cccn3)cc2)cs1,,8.00,,,
C[C@@H](NC(=O)[C@H](O)[C@@H](O)C(=O)N1CCC[C@@H]1c1csc(N)n1)c1ccc(-n2cccn2)cc1,5.37,8.22,2280,0.247,
CNc1nc([C@H]2CCCN2C(=O)[C@H](O)[C@@H](O)C(=O)N[C@H](C)c2ccc(-n3cccn3)cc2)cs1,5.24,8.15,30700,2.54,
CC(C)Nc1nc([C@H]2CCCN2C(=O)[C@H](O)[C@@H](O)C(=O)N[C@H](C)c2ccc(-n3cccn3)cc2)cs1,5.18,7.77,115000,12.3,
C[C@@H](NC(=O)[C@H](O)[C@@H](O)C(=O)N1CCC[C@@H]1c1csc(NC2CCC2)n1)c1ccc(-n2cccn2)cc1,5.67,8.40,31400,3.54,
CNc1nc([C@H]2CCCN2C(=O)[C@H](O)[C@@H](O)C(=O)N[C@H](C)c2ccc(-n3cccn3)cc2)c(C)s1,5.65,8.70,5440,,
CNc1nc([C@H]2CCCN2C(=O)[C@H](O)[C@@H](O)C(=O)N[C@H](C)c2ccc(-n3cccn3)cc2)c(C2CC2)s1,5.59,8.70,11400,,
CNc1nc([C@H]2CCCN2C(=O)[C@H](O)[C@@H](O)C(=O)N[C@H](C)c2ccc(-n3cccn3)cc2)c(C#N)s1,5.52,8.70,154,,
CCNc1nc([C@H]2C[C@@H](C)CN2C(=O)[C@H](O)[C@@H](O)C(=O)N[C@H](C)c2ccc(-n3cccn3)cc2)cs1,5.39,8.22,5620,,
CNc1nc([C@H]2C[C@H]3C[C@H]3N2C(=O)[C@H](O)[C@@H](O)C(=O)N[C@H](C)c2ccc(-n3cccn3)cc2)cs1,6.15,9.00,925,,
CNc1nc([C@H]2C[C@@H]3C[C@@H]3N2C(=O)[C@H](O)[C@@H](O)C(=O)N[C@H](C)c2ccc(-n3cccn3)cc2)cs1,,6.27,,,
C[C@@H](NC(=O)[C@H](O)[C@@H](O)C(=O)N1C[C@H](O)CC1c1cccc(Cl)c1)c1ccc(-n2cccn2)cc1 (mixture of isomers),,8.12,3910,,
C[C@@H](NC(=O)[C@H](O)[C@@H](O)C(=O)N1CCCCC1c1ccccc1)c1ccc(-n2cccn2)cc1 (mixture of isomers),,7.85,,,
COc1cc2c(cc1OC)C(c1ccccc1)N(C(=O)[C@H](O)[C@@H](O)C(=O)N[C@H](C)c1ccc(-n3cccn3)cc1)CC2 (mixture of isomers),,9.05,1240,,
CNc1nc(C2(C)CCCN2C(=O)[C@H](O)[C@@H](O)C(=O)N[C@H](C)c2ccc(-n3cccn3)cc2)cs1 (mixture of isomers),4.86,8.05,2440,,
